# Experimental data from patent US10774051B2, “6-membered heterocyclic derivatives and pharmaceutical composition comprising the same” (Shionogi & Co., Ltd., priority 2015, dated 2020).
# Target: human P2X7 receptor (Homo sapiens, UniProt Q99572, R270H/Y155H)
# Assay: Evaluation of human P2X7 receptor inhibitory activity (Yo-Pro uptake, BzATP stimulation, FLIPR TETRA)
# Type: cell-based
# Settings: 1321N1 cells stably expressing human P2X7 receptor; BzATP stimulation, Yo-Pro uptake; read-out: IC50 (antagonistic activity for the human P2X7 receptor)
# Outline: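 Yo-Pro dye uptake triggered by BzATP was monitored by FLIPR in human P2X7-transfected 1321N1 cells (SNP variant) in HEPES-buffered HBSS, pH 7.4-7.5. Compound was dispensed 8 min post-stimulation, then signal read for 20 min; IC50 derived logistically from inhibition of the fluorescence range.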
row,Compound,IC50
1,COc1cc(C)c(Nc2cc(=O)c(OC)cn2Cc2ccccc2)cc1C [Compound I-0945],170 nM
2,COc1cn(Cc2ccc(F)c(Cl)c2)c(Nc2cc(-c3ncco3)ccc2C)cc1=O [Compound I-0953],25 nM
3,COc1cn(Cc2ccc(F)c(Cl)c2)c(Nc2cc(C#N)ccc2C)cc1=O [Compound I-0957],110 nM
4,COc1ccc(C)c(Oc2cc(=O)c(OC)cn2Cc2ccc(F)c(Cl)c2)c1 [Compound I-0961],410 nM
5,COc1cn(Cc2ccc(F)c(Cl)c2)c(Oc2cc(-c3ncco3)ccc2C)cc1=O [Compound I-0965],440 nM
6,COc1cn(Cc2ccc(F)c(Cl)c2)c(Oc2cc3sc(C)nc3cc2C)cc1=O [Compound I-0966],480 nM
7,COc1cnc(Nc2cccc(Cl)c2C)n(Cc2ccccc2)c1=O [Compound I-0967],450 nM
8,COc1cc(C)c(Nc2ncc(OC)c(=O)n2Cc2ccc(F)c(Cl)c2)cc1C [Compound I-0985],65 nM
9,COc1cnc(Nc2cc(N3CCCC3=O)ccc2C)n(Cc2ccc(F)c(Cl)c2)c1=O [Compound I-0986],24 nM
10,COc1cnc(Nc2cc3sc(C)nc3cc2C)n(Cc2ccc(F)c(Cl)c2)c1=O [Compound I-0987],110 nM
11,COc1cnc(Nc2cc(C)cc3[nH]ccc23)n(Cc2ccc(F)c(Cl)c2)c1=O [Compound I-0989],300 nM
12,Cc1c(Cl)cccc1Nc1cc(=O)n(C)c(=O)n1Cc1ccccc1 [Compound I-0990],320 nM
13,COc1cc(C)c(Nc2cc(=O)n(C)c(=O)n2Cc2cc(F)c(F)c(F)c2)cc1C [Compound I-0991],29 nM
14,Cn1ccc2c(Nc3nc(=O)c(F)cn3Cc3ccc(F)c(Cl)c3)cccc21 [Compound I-1019],4 nM

# Same assay, conditions: antagonistic activity for the human P2X7 receptor; read-out: IC50
row,Compound,IC50
1,COc1cn(Cc2cc(F)c(F)c(F)c2)c(Nc2ccc(OCF)cc2C)nc1=O [Compound I-0943],< 10 nM
2,COc1ccc(Nc2cc(=O)c(OC)cn2Cc2ccc(F)c(Cl)c2)c(C)c1 [Compound I-0944],100 to 500 nM
3,COc1cn(Cc2ccccc2)c(Nc2cc(C)c(F)cc2C)cc1=O [Compound I-0946],500 to 1000 nM
4,COc1ccc(C)c(Nc2cc(=O)c(OC)cn2Cc2ccc(F)c(Cl)c2)c1 [Compound I-0947],10 to 100 nM
5,COc1cn(Cc2ccc(F)c(Cl)c2)c(Nc2cc(C)c(OC(F)F)cc2C)cc1=O [Compound I-0948],10 to 100 nM
6,COc1cn(Cc2ccc(F)c(Cl)c2)c(Nc2cc(C)c(Cl)cc2C)cc1=O [Compound I-0949],100 to 500 nM
7,COc1cn(Cc2ccccc2)c(Nc2ccc(Cl)cc2C)cc1=O [Compound I-0950],100 to 500 nM
8,COc1cn(Cc2ccccc2)c(Nc2cc(C)c(OC(F)F)cc2C)cc1=O [Compound I-0951],100 to 500 nM
9,COc1ccc(C)c(Nc2cc(=O)c(OC)cn2Cc2ccccc2)c1 [Compound I-0952],100 to 500 nM
10,COc1cc(C)c(Nc2cc(=O)c(OC)cn2Cc2ccc(F)c(Cl)c2)cc1C [Compound I-0954],10 to 100 nM
11,COc1ccc(Cl)c(Nc2cc(=O)c(OC)cn2Cc2ccc(F)c(Cl)c2)c1 [Compound I-0955],10 to 100 nM
12,COc1cn(Cc2ccc(F)c(Cl)c2)c(Nc2cc(C(F)(F)F)ccc2C)cc1=O [Compound I-0956],100 to 500 nM
13,COc1cn(Cc2ccc(F)c(Cl)c2)c(Nc2ccc(C#N)cc2C)cc1=O [Compound I-0958],100 to 500 nM
14,COc1ccc(Nc2cc(=O)c(OC)cn2Cc2ccccc2)c(C)c1 [Compound I-0959],500 to 1000 nM
15,COc1cc(C)c(Nc2c(Cl)c(=O)c(OC)cn2Cc2ccc(F)c(Cl)c2)cc1C [Compound I-0964],100 to 500 nM
16,COc1cnc(Nc2cccc(Cl)c2C)n(Cc2cccc(Cl)c2)c1=O [Compound I-0969],500 to 1000 nM
17,COc1cnc(Nc2cccc(Cl)c2C)n(Cc2ccc(F)c(Cl)c2)c1=O [Compound I-0971],100 to 500 nM
18,COc1cnc(Nc2cccc(Cl)c2C)n(Cc2ccc(F)c(F)c2)c1=O [Compound I-0973],100 to 500 nM
19,COc1cnc(Nc2cc(C)c(Cl)cc2C)n(Cc2ccccc2)c1=O [Compound I-0981],500 to 1000 nM
20,COc1cc(Nc2nc(=O)c(F)cn2Cc2ccc(F)c(F)c2)c(C)cc1Cl [Compound I-0993],< 10 nM
21,Cc1ccc(OC(F)F)cc1Nc1nc(=O)c(F)cn1Cc1cc(F)cc(F)c1 [Compound I-0994],10 to 100 nM
22,O=c1nc(Nc2cccc3c2CCN3)n(Cc2cc(F)c(F)c(F)c2)cc1F [Compound I-0995],10 to 100 nM

row,Compound,IC50
1,COCc1ccc(C)c(Nc2nc(=O)c(F)cn2Cc2cc(F)cc(F)c2)c1 [Compound I-0996],10 to 100 nM
2,Cc1ccc(OCC2CC2)cc1Nc1nc(=O)c(F)cn1Cc1cc(F)cc(F)c1 [Compound I-0997],10 to 100 nM
3,CCOc1ccc(C)c(Nc2nc(=O)c(F)cn2Cc2ccc(F)c(Cl)c2)c1 [Compound I-0998],< 10 nM
4,CCOc1ccc(C)c(Nc2nc(=O)c(F)cn2Cc2ccc(F)c(F)c2)c1 [Compound I-0999],< 10 nM
5,COc1nc(C)c(Nc2nc(=O)c(F)cn2Cc2cc(F)c(F)c(F)c2)cc1C [Compound I-1000],< 10 nM
6,Cc1cc2c(cc1Nc1nc(=O)c(F)cn1Cc1cc(F)cc(F)c1)CCO2 [Compound I-1001],< 10 nM
7,CCOc1ccc(C)c(Nc2nc(=O)c(F)cn2Cc2cc(F)cc(F)c2)c1 [Compound I-1002],10 to 100 nM
8,COc1nc(C)c(Nc2nc(=O)c(F)cn2Cc2cc(F)cc(F)c2)cc1C [Compound I-1003],< 10 nM
9,COc1nc(C)c(Nc2nc(=O)c(F)cn2Cc2ccc(F)c(Cl)c2)cc1C [Compound I-1004],< 10 nM
10,COc1cc(Nc2nc(=O)c(F)cn2Cc2cc(F)cc(F)c2)c(C)cc1Cl [Compound I-1005],< 10 nM
11,COc1cc(Nc2nc(=O)c(F)cn2Cc2cc(F)c(F)c(F)c2)c(C)cc1Cl [Compound I-1006],< 10 nM
12,CCOc1ccc(C)c(Nc2nc(=O)c(F)cn2Cc2cc(F)c(F)c(F)c2)c1 [Compound I-1007],< 10 nM
13,COc1nc(C)c(Nc2nc(=O)c(F)cn2Cc2ccc(F)c(F)c2)cc1C [Compound I-1008],< 10 nM
14,Cc1nc2cc(C)c(Nc3nc(=O)c(F)cn3Cc3cc(F)cc(F)c3)cc2s1 [Compound I-1009],< 10 nM
15,Cc1nc2cc(C)c(Nc3nc(=O)c(F)cn3Cc3ccc(F)c(F)c3)cc2s1 [Compound I-1010],< 10 nM
16,Cc1nc2cc(C)c(Nc3nc(=O)c(F)cn3Cc3ccc(F)cc3)cc2s1 [Compound I-1011],< 10 nM
17,Cc1ccc(CO)cc1Nc1nc(=O)c(F)cn1Cc1ccc(F)c(F)c1 [Compound I-1012],< 10 nM
18,Cc1ccc(CO)cc1Nc1nc(=O)c(F)cn1Cc1ccc(F)c(Cl)c1 [Compound I-1013],< 10 nM
19,Cc1ccc(CO)cc1Nc1nc(=O)c(F)cn1Cc1cc(F)cc(F)c1 [Compound I-1014],< 10 nM
20,Cc1ccc(CO)cc1Nc1nc(=O)c(F)cn1Cc1cc(F)c(F)c(F)c1 [Compound I-1015],< 10 nM
21,Cc1nc2[nH]ccc2cc1Nc1nc(=O)c(F)cn1Cc1cc(F)cc(F)c1 [Compound I-1016],10 to 100 nM
22,Cc1nc2[nH]ccc2cc1Nc1nc(=O)c(F)cn1Cc1cc(F)c(F)c(F)c1 [Compound I-1017],10 to 100 nM

row,Compound,IC50
1,Cn1ccc2c(Nc3nc(=O)c(F)cn3Cc3cc(F)c(F)c(F)c3)cccc21 [Compound I-1018],< 10 nM
2,Cn1ccc2c(Nc3nc(=O)c(F)cn3Cc3ccc(F)c(F)c3)cccc21 [Compound I-1020],< 10 nM
3,Cn1ccc2c(Nc3nc(=O)c(F)cn3Cc3cc(F)cc(F)c3)cccc21 [Compound I-1021],< 10 nM
4,O=c1nc(Nc2cccc3[nH]ccc23)n(Cc2cc(F)cc(F)c2)cc1F [Compound I-1022],< 10 nM
5,O=c1nc(Nc2cccc3[nH]ccc23)n(Cc2cc(F)c(F)c(F)c2)cc1F [Compound I-1023],< 10 nM
6,O=c1nc(Nc2cccc3[nH]ccc23)n(Cc2ccc(F)c(Cl)c2)cc1F [Compound I-1024],< 10 nM
7,O=c1nc(Nc2cccc3[nH]ccc23)n(Cc2ccc(F)c(F)c2)cc1F [Compound I-1025],< 10 nM
8,Cc1cc2c(cc1Nc1nc(=O)c(F)cn1Cc1ccc(F)c(Cl)c1)COC2 [Compound I-1026],< 10 nM
9,Cc1cc2c(cc1Nc1nc(=O)c(F)cn1Cc1cc(F)cc(F)c1)COC2 [Compound I-1027],10 to 100 nM
10,Cc1cc2c(cc1Nc1nc(=O)c(F)cn1Cc1ccc(F)c(F)c1)COC2 [Compound I-1028],< 10 nM
11,CCOc1cc(Nc2nc(=O)c(F)cn2Cc2cc(F)c(F)c(F)c2)c(C)cc1F [Compound I-1030],< 10 nM
12,CCOc1cc(Nc2nc(=O)c(F)cn2Cc2ccc(F)c(Cl)c2)c(C)cc1F [Compound I-1031],< 10 nM
13,CCOc1cc(Nc2nc(=O)c(F)cn2Cc2cc(F)cc(F)c2)c(C)cc1F [Compound I-1032],10 to 100 nM
14,CCOc1cc(Nc2nc(=O)c(F)cn2Cc2ccc(F)c(F)c2)c(C)cc1F [Compound I-1033],< 10 nM
15,CCOc1ccc(Nc2nc(=O)c(F)cn2Cc2cc(F)c(F)c(F)c2)c(C)c1 [Compound I-1034],< 10 nM
16,CCOc1ccc(Nc2nc(=O)c(F)cn2Cc2ccc(F)c(Cl)c2)c(C)c1 [Compound I-1035],10 to 100 nM
17,COc1ccc(Nc2nc(=O)c(F)cn2Cc2cc(F)c(F)c(F)c2)c(C)n1 [Compound I-1036],10 to 100 nM
18,COc1ccc(Nc2nc(=O)c(F)cn2Cc2cc(F)cc(F)c2)c(C)n1 [Compound I-1037],10 to 100 nM
19,CCOc1cc(C)c(Nc2nc(=O)c(F)cn2Cc2cc(F)c(F)c(F)c2)cc1F [Compound I-1038],10 to 100 nM
20,Cc1cc(OC(F)F)ccc1Nc1nc(=O)c(F)cn1Cc1cc(F)c(F)c(F)c1 [Compound I-1039],10 to 100 nM
21,Cc1cc2[nH]ccc2cc1Nc1nc(=O)c(F)cn1Cc1ccc(F)c(Cl)c1 [Compound I-1042],< 10 nM
22,Cc1cc2[nH]ccc2cc1Nc1nc(=O)c(F)cn1Cc1ccc(F)c(F)c1 [Compound I-1043],< 10 nM
